Tests used:
[1] = 1 uM methemoglobin, 2.0 Mm anisole, 0.6 mM sodium sulfite, pH 7.0, 37 degrees C
Method: The cleavage of anisole is a more demanding test of monooxygenase activity--see Galaris et. al., Arch. Biochem. Biophys., 1990, 281, 163 n., and Lindsay Smith et.al., J. Chem. Soc. Chem. Commun., 1982, 55. […] The reaction mixtures were preincubated for 5 mins at 37 degrees C. and then terminated by addition of ice-cold 20% trichloroacetic acid (for formaldehyde determination), or by addition of ice-cold diethyl ether and subsequent extraction with diethyl ether (for GC detection of the product phenol).

[2] = tested on: hemoglobin-Fe(II); test: Effect of added agents on the sulfite/heme protein catalysed hydroxylation; assay type: biochemical; conditions: agents in reasonable quantities
[3] = Aniline p-hydroxylation catalysed by myoglobin with sodium sulfite; assay type: biochemical; conditions: 0.1 mL of 6 mM sodium sulphite, otherwise as Example 1
Method: An experiment was conducted exactly as described above in connection with Example 1, but using myoglobin Mb, 28 mg, MW18800, from Sigma, in place of Mt, and an amount of 0.1 mL of 6 mM sodium sulphite. Otherwise conditions and quantities were the same.

methemoglobin
kinetics of hydroxylation with respect to aniline (constant sodium sulfite concentration, 37 degrees C, pH 7.0): follows Michaelis-Menten kinetics
kinetic mechanism on variation of sodium sulfite concentration (sodium sulfite 0.05-0.40 mM, Lineweaver-Burk plots (FIG. 2)): ping-pong mechanism
production of phenol and formaldehyde from anisole [1]: 140 pmol/min

OC[C@@H](O)[C@@H](O)[C@H](O)[C@H](O)CO [mannitol]
effect on the catalytic hydroxylation process [2]: not subject to inhibition

C[S+](C)[O-] [dimethylsulfoxide]
effect on the catalytic hydroxylation process [2]: not subject to inhibition

CCO [ethanol]
effect on the catalytic hydroxylation process [2]: not subject to inhibition

superoxide dismutase: enzyme added to test whether superoxide is involved in the hydroxylation
effect on the catalytic hydroxylation process [2]: no effect

[C-]#[O+] [carbon monoxide]
effect on the catalytic hydroxylation process [2]: inhibited

B1: catalase: enzyme added to test whether peroxide is involved in the hydroxylation (protein, UniProt P00432 2-527, looked up)
Catalase: ADNRDPASDQMKHWKEQRAAQKPDVLTTGGGNPVGDKLNSLTVGPRGPLLVQDVVFTDEMAHFDRERIPERVVHAKGAGAFGYFEVTHDITRYSKAKVFEHIGKRTPIAVRFSTVAGESGSADTVRDPRGFAVKFYTEDGNWDLVGNNTPIFFIRDALLFPSFIHSQKRNPQTHLKDPDMVWDFWSLRPESLHQVSFLFSDRGIPDGHRHMNGYGSHTFKLVNANGEAVYCKFHYKTDQGIKNLSVEDAARLAHEDPDYGLRDLFNAIATGNYPSWTLYIQVMTFSEAEIFPFNPFDLTKVWPHGDYPLIPVGKLVLNRNPVNYFAEVEQLAFDPSNMPPGIEPSPDKMLQGRLFAYPDTHRHRLGPNYLQIPVNCPYRARVANYQRDGPMCMMDNQGGAPNYYPNSFSAPEHQPSALEHRTHFSGDVQRFNSANDDNVTQVRTFYLKVLNEEQRKRLCENIAGHLKDAQLFIQKKAVKNFSDVHPEYGSRIQALLDKYNEEKPKNAVHTYVQHGSHLSAREKANL
effect on the catalytic hydroxylation process [2]: no effect

B2: myoglobin (protein, UniProt P68082 2-154, looked up)
Myoglobin: GLSDGEWQQVLNVWGKVEADIAGHGQEVLIRLFTGHPETLEKFDKFKHLKTEAEMKASEDLKKHGTVVLTALGGILKKKGHHEAELKPLAQSHATKHKIPIKYLEFISDAIIHVLHSKHPGDFGADAQGAMTKALELFRNDIAAKYKELGFQG
notes: myoglobin Mb, MW18800, from Sigma, used in place of Mt
monooxygenase activity (aniline to p-aminophenol) compared with Mt of Example 1 [3]: essentially similar result

— US5362856A, “Monooxygenase-like activity of heme proteins” (University of Toronto Innovations Foundation, priority 1993, dated 1994)
